Laboratory results as given in US20240254119A1 (THIRD HARMONIC BIO, INC., priority 2022, published 2024).

biological target: T1, BCRP (BCRP-MDCKII monolayer) (Homo sapiens, UniProt Q9UNQ0); test: MDCKII-BCRP bidirectional transport assay; assay type: in vitro ADME; conditions: not given
T1 construct: host or cells: MDCKII (canine kidney) cells
T1 sequence (Q9UNQ0 1-655): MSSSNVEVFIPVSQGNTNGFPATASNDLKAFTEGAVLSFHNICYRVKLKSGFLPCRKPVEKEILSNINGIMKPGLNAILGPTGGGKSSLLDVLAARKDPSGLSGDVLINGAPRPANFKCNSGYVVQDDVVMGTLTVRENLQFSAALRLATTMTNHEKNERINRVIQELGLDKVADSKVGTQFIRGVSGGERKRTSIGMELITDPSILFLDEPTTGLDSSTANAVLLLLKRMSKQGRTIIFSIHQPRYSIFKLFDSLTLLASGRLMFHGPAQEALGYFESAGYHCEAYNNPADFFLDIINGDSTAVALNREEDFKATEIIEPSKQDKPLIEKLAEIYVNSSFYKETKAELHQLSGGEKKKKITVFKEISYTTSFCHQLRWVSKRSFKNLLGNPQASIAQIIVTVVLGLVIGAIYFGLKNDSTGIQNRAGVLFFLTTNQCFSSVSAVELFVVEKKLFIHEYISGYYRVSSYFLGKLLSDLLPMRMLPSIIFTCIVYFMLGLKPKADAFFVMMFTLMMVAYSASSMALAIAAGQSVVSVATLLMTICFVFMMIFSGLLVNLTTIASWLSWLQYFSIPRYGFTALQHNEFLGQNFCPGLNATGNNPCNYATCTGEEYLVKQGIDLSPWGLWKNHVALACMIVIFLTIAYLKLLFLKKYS
Experimental: Exemplary compounds were tested for cell permeability in Caco-2, MDCKII-MDR1 and MDCKII-BCRP cell lines with efflux transporter engagement inferred from the efflux ratios determined. Procedures and results are described below. […] This feature of certain compounds is in part due to efflux transporter engagement. See, for instance, exemplary such compounds included in data tables below.
The reference compound Teriflunomide and test compounds are tested in the bidirectional assay. Test compound and reference compounds incubations were tested in duplicates.
The transport assay can be performed between days 12 to day 15 using ready to use PreadyPort™ BCRP-MDCKII monolayer in 96 well plate.
The medium was aspirated from the apical and basal compartments and 75 and 235 μL assay buffer was added to each of the 96 wells of apical and basal compartments of the PreadyPort™ plate.
The plates were pre-incubated for 15 min at 37° C. with 5% CO2 in humidified atmosphere. After preincubation the assay buffer was removed from the apical and basal inserts of the plate.
In apical to basolateral (A→B) transport, 75 μL of test or reference compound working solution to apical inserts and 235 μL of blank assay buffer were added to the corresponding basal compartments.
In basolateral to apical transport, 235 μL of test or reference compound working solution to the basal compartments and 75 μL of blank assay buffer solution were added to corresponding apical inserts.
The sandwich plate was incubated for 120 min in incubator at 5% CO2 and 37° C.
After incubation, 60 μL was transferred from receiver and donor compartments to collection plate.
For donor and C0 samples 20-fold dilution was accomplished by mixing 60 μL of collected sample with 1140 μL of transport buffer and from that solution aliquot 60 μL transfer Both receiver and donor samples were processed by adding […] of acetonitrile containing internal standard (60 μL of sample+240 μL of acetonitrile containing glyburide as internal standard, 125 ng/mL) and vortexing the samples. The compound concentration was measured in all samples using respective calibration standards by LC-MS/MS.
Calculate the Papp and recovery using the given formula:
[formula] [formula] • Where: dQ/dt=Permeability rate in μM/see • C0=Initial concentration in μM • A=Membrane surface area (0.33 cm^2) • V=Volume of receiver chamber • Cend, a=concentration in acceptor well at end of incubation • Cend, d=concentration in donor well at end of incubation • CHBSS=loading concentration measured in HBSS

Compound | MDCK-BCRP: Efflux Ratio
Cc1ccc(-c2noc(C3CCC3F)n2)cc1NC(=O)c1cnc2ccccn12 (stereo not drawn) [Compound I-400] | 1.44

same assay, conditions: apical to basolateral

Compound | MDCK-BCRP: Papp A-B
Cc1ccc(-c2noc(C3CCC3F)n2)cc1NC(=O)c1cnc2ccccn12 (stereo not drawn) [Compound I-400] | 11.7 10^−6 cm/s

tested on: not listed separately; test: Kinetic solubility assay; assay type: physicochemical; conditions: kinetic solubility, 50 mM PB (pH 7.4), shaken 24 hours at RT
Experimental: 10 μL of 10 mM in DMSO of test article and control compounds was added into lower chambers of whatman miniuniprep vials, respectively. 490 μL of 50 mM PB (pH 7.4) was then added into lower chambers of the whatman miniuniprep vials, respectively. […] Miniuniprep vials were shaken for 24 hours at RT at the speed of 800 rpm, centrifuged 20 minutes (eg. 4000 rpm) and the filtrates were analyzed by UPLC-UV/HPLC-UV system to calculate the concentration with standard curve.
Filter Membrane: Miniuniprep (PTFE Filter Media with Polypropylene Housing) Cat. No. UN203NPUORG, GE Halthcare Whatman.

Compound | Solubility (μM)
Cc1ccc(-c2noc(C3CCC3F)n2)cc1NC(=O)c1cnc2ccccn12 (stereo not drawn) [Compound I-400] | **** (a solubility less than or equal to 2 μM)
COc1ccc2c(C(=O)Nc3cc(-c4noc([C@H]5C[C@@H]5F)n4)ccc3C)cnn2c1 [I-21] | **** (a solubility less than or equal to 2 μM)
Cc1ccc(-c2noc([C@H]3C[C@@H]3F)n2)cc1NC(=O)c1cnc2ccc(N3CCCC3=O)cn12 [I-4] | **** (a solubility less than or equal to 2 μM)
Cc1ccc(-c2noc([C@H]3C[C@@H]3F)n2)cc1NC(=O)c1cnn2cc(OC(F)(F)F)ccc12 [I-19] | **** (a solubility less than or equal to 2 μM)
Cc1ccc(-c2noc([C@H]3C[C@@H]3F)n2)cc1NC(=O)c1cnc2ccc(CC#N)cn12 [I-15] | **** (a solubility less than or equal to 2 μM)
Cc1ccc(-c2noc(CC(O)C(F)(F)F)n2)cc1NC(=O)c1cnc2ccccn12 (single isomer, unassigned) [I-67] | **** (a solubility less than or equal to 2 μM)
O=C(Nc1cc(-c2noc(CC(O)C(F)F)n2)ccc1Cl)c1cnc2ccccn12 (single isomer, unassigned) [I-62] | **** (a solubility less than or equal to 2 μM)
Cc1noc(-c2ccc3ncc(C(=O)Nc4cc(-c5noc([C@H]6C[C@@H]6F)n5)ccc4C)n3c2)n1 [I-2] | **** (a solubility less than or equal to 2 μM)
Cc1ccc(-c2noc(C3CC3F)n2)cc1NC(=O)c1cnc2cc(CNC(=O)C3CCCO3)ccn12 (mixture of isomers) [I-33] | *** (a solubility greater than 2 μM and less than or equal to 10 μM)
COc1ccn2c(C(=O)Nc3cccc(-c4noc(CC5CC5(F)F)n4)c3F)cnc2c1 (single isomer, unassigned) [I-54] | **** (a solubility less than or equal to 2 μM)
Cc1ccc(-c2noc([C@H]3C[C@@H]3F)n2)cc1NC(=O)c1cnc2cc(N3CCCC3=O)ccn12 [I-14] | **** (a solubility less than or equal to 2 μM)
Cc1ccc(-c2noc(C3COC3)n2)cc1NC(=O)c1cnc2cc(OC(F)(F)F)ccn12 [I-24] | **** (a solubility less than or equal to 2 μM)
Cc1ccc(-c2noc(C3CC3F)n2)cc1NC(=O)c1cnn2cccc(C(F)F)c12 (stereo not drawn) [I-60] | **** (a solubility less than or equal to 2 μM)
COc1cc2ncc(C(=O)Nc3cc(-c4noc([C@H]5C[C@@H]5F)n4)ccc3C)n2cc1F [I-27] | **** (a solubility less than or equal to 2 μM)
Cc1ccc(-c2noc([C@H]3C[C@@H]3F)n2)cc1NC(=O)c1cnc2cc(CNC(=O)C(C)(C)O)ccn12 [I-31] | **** (a solubility less than or equal to 2 μM)
Cc1ccc(-c2noc(C3COC3)n2)cc1NC(=O)c1cnc2cc(CC(F)(F)F)ccn12 [I-36] | **** (a solubility less than or equal to 2 μM)

Compound | Solubility (μM)
O=C(Nc1cc(-c2noc(C3CC3(F)F)n2)ccc1Cl)c1cnc2ccccn12 (stereo not drawn) [I-74] | **** (a solubility less than or equal to 2 μM)
Cc1ccc(-c2noc([C@H]3C[C@@H]3F)n2)cc1NC(=O)c1cnc2cc(CNS(C)(=O)=O)ccn12 [I-17] | **** (a solubility less than or equal to 2 μM)
Cc1ccc(-c2noc([C@H]3C[C@@H]3F)n2)cc1NC(=O)c1cnc2cc(CF)ccn12 [I-49] | **** (a solubility less than or equal to 2 μM)
COc1ccc2ncc(C(=O)Nc3cc(-c4noc(CC(O)C(F)F)n4)ccc3C)n2c1 (single isomer, unassigned) [I-65] | **** (a solubility less than or equal to 2 μM)
Cc1ccc(-c2noc([C@H]3C[C@@H]3F)n2)cc1NC(=O)c1cnc2ccc(CNS(=O)(=O)C3CC3)cn12 [I-5] | **** (a solubility less than or equal to 2 μM)
Cc1ccc(-c2noc(C3CC3F)n2)cc1NC(=O)c1cnc2cc(COC(C)(C)CO)ccn12 (stereo not drawn) [I-64] | ** (a solubility greater than 10 μM and less than or equal to 50 μM)
Cc1ccc(-c2noc([C@H]3C[C@@H]3F)n2)cc1NC(=O)c1cnc2ccc(CNC(=O)CO)cn12 [I-8] | **** (a solubility less than or equal to 2 μM)
Cc1ccc(-c2noc([C@H]3C[C@@H]3F)n2)cc1NC(=O)c1cnc2cc(C(=O)N3CCCC3)ccn12 [I-3] | *** (a solubility greater than 2 μM and less than or equal to 10 μM)
Cc1ccc(-c2noc([C@H]3C[C@@H]3F)n2)cc1NC(=O)c1cnc2cc(CNS(=O)(=O)C3CC3)ccn12 [I-10] | **** (a solubility less than or equal to 2 μM)
COc1ccn2c(C(=O)Nc3cc(-c4nc(C)no4)ccc3Cl)cnc2c1 [I-37] | **** (a solubility less than or equal to 2 μM)
Cc1cn2c(C(=O)Nc3cc(-c4noc([C@H]5C[C@@H]5F)n4)ccc3C)cnc2cc1C#N [I-26] | **** (a solubility less than or equal to 2 μM)
O=C(Nc1cccc(-c2noc(C3CC3F)n2)c1F)c1cnc2cc(COCCO)ccn12 (stereo not drawn) [I-57] | **** (a solubility less than or equal to 2 μM)
Cc1ccc(-c2noc(CC(O)C(F)F)n2)cc1NC(=O)c1cnc2cc(C(F)F)ccn12 (single isomer, unassigned) [I-70] | **** (a solubility less than or equal to 2 μM)
COC(=O)NCc1ccn2c(C(=O)Nc3cc(-c4noc([C@H]5C[C@@H]5F)n4)ccc3C)cnc2c1 [I-30] | **** (a solubility less than or equal to 2 μM)
Cc1ccc(-c2noc(C3CC3F)n2)cc1NC(=O)c1cnc2cc(COC(C)CO)ccn12 (stereo not drawn) [I-59] | * (a solubility greater than 50 μM)
